Test results as given in US12391640B2, “Process of making a crystalline EDG-2 receptor antagonist” (HORIZON THERAPEUTICS IRELAND DAC, priority 2022, dated 2025).

Tests used:
[1] = Solubility of Compound I in solvents at neutral/acidic pH; format: physicochemical
LPA1 receptor [2] = target: T1, LPA1 receptor (Homo sapiens, UniProt Q92633); conditions: patients with dcSSc; cited from earlier work
T1 construct: host or cells: patients (endogenous receptor), clinical study cited from Allanore et al. 2018
T1 sequence (Q92633 whole entry): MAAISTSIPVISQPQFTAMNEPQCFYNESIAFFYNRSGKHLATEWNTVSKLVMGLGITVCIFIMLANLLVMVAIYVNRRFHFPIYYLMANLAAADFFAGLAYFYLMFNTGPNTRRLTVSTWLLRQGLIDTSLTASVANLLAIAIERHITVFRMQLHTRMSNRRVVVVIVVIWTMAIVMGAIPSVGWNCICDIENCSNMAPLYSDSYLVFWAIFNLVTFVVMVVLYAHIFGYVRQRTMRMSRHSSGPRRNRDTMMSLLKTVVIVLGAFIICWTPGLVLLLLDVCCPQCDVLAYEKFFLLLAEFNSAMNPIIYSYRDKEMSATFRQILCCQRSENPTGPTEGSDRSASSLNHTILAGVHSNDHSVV

LPA1 receptor [3] = target: T2, LPA1 receptor (Mus musculus, UniProt P61793); conditions: mouse model of skin fibrosis; cited from earlier work
T2 construct: from tissue; host or cells: living mouse (skin), endogenous receptor
T2 sequence (P61793 whole entry): as the sequence (Q92633 whole entry) above, with I4A, I8S, P22Q, H40Y, I61V, E193D, N194H, I269V, S331N, T335N counted along it

[4] = Form conversion when slurried in solvent, determined by FTIR; format: physicochemical; conditions: slurried in MEK or 1-pentanol at 60° C. or 70° C.
[5] = Physical stability of solid state forms at 80° C./75% RH, examined by FTIR; format: physicochemical; conditions: 1 week, open glass vials
Description: The physical stability of Forms 1, 2, and 3 was investigated at 80° C./75% RH in order to determine if interconversion was observed. The samples were examined by FTIR after stressing 1 week in open glass vials.

[6] = Solubility of the polymorphs at pH 7.4 in phosphate buffer; format: physicochemical; conditions: pH 7.4 phosphate buffer, 25° C.
Description: The solubility of the different polymorphs was determined at pH 7.4 in phosphate buffer at 25° C. Samples were analyzed as a function of time for each form to determine the equilibrium values. The residual solids from each sample were analyzed to verify that the form was unchanged during the experiment. The concentration (mg/mL) versus time data is listed below for each form: […]

COc1ccc(C(=O)NC2(C(=O)O)Cc3ccccc3C2)cc1OCCc1cccc(C)c1 [Compound I, 2-(4-methoxy-3-(3-methylphenethoxy)benzamido)-2,3-dihydro-1H-indene-2-carboxylic acid]
solubility in most solvents [1]: highly insoluble
outcome measures (LPA1 receptor [2]): improved outcome measures
target engagement (LPA1 receptor [2]): demonstrated target engagement
tolerability (LPA1 receptor [2]): well tolerated
collagen content (LPA1 receptor [3]): reduced collagen content
dermal thickening (LPA1 receptor [3]): reversed dermal thickening
myofibroblast differentiation (LPA1 receptor [3]): significantly inhibited myofibroblast differentiation

COc1ccc(C(=O)NC2(C(=O)O)Cc3ccccc3C2)cc1OCCc1cccc(C)c1 [Form 1, 2-(4-methoxy-3-(3-methylphenethoxy)benzamido)-2,3-dihydro-1H-indene-2-carboxylic acid]
form conversion in slurry [4]: converts to crystalline Form 2
changes in FTIR spectrum after stressing (physical stability) [5]: unchanged FTIR

COc1ccc(C(=O)NC2(C(=O)O)Cc3ccccc3C2)cc1OCCc1cccc(C)c1 [Form 2, 2-(4-methoxy-3-(3-methylphenethoxy)benzamido)-2,3-dihydro-1H-indene-2-carboxylic acid]
24 hour solubility result greater than Form 1 ([6]; 24 hour): more than 30%

COc1ccc(C(=O)NC2(C(=O)O)Cc3ccccc3C2)cc1OCCc1cccc(C)c1 [Form 3, 2-(4-methoxy-3-(3-methylphenethoxy)benzamido)-2,3-dihydro-1H-indene-2-carboxylic acid]
equilibrium solubility at 24 hours relative to Form 1 [6]: more than double

COc1ccc(C(=O)NC2(C(=O)O)Cc3ccccc3C2)cc1OCCc1cccc(C)c1 [Form 4, 2-(4-methoxy-3-(3-methylphenethoxy)benzamido)-2,3-dihydro-1H-indene-2-carboxylic acid]
equilibrium solubility at 24 hours relative to Form 1 [6]: more than double
